From PMC8469034, “Catalytic Asymmetry in Homodimeric H^+-Pumping Membrane Pyrophosphatase Demonstrated by Non-Hydrolyzable Pyrophosphate Analogs” (International Journal of Molecular Sciences, 2021)
Where two headings read alike, the source gives them in different places.

Columns and labels:
[1] = target: T1, Dh-mPPase (Desulfitobacterium hafniense, UniProt B8FXV7); experiment: continuous Pi analyzer assay of PPi hydrolysis, inverted membrane vesicles, global fit; type: biochemical
T1 construct: gene hppA; full-length membrane protein expressed in E. coli C41(DE3)ril, assayed in inverted membrane vesicles; homodimer; K+-dependent H+-transporting, EC 7.1.3.1
T1 sequence (B8FXV7 1-671): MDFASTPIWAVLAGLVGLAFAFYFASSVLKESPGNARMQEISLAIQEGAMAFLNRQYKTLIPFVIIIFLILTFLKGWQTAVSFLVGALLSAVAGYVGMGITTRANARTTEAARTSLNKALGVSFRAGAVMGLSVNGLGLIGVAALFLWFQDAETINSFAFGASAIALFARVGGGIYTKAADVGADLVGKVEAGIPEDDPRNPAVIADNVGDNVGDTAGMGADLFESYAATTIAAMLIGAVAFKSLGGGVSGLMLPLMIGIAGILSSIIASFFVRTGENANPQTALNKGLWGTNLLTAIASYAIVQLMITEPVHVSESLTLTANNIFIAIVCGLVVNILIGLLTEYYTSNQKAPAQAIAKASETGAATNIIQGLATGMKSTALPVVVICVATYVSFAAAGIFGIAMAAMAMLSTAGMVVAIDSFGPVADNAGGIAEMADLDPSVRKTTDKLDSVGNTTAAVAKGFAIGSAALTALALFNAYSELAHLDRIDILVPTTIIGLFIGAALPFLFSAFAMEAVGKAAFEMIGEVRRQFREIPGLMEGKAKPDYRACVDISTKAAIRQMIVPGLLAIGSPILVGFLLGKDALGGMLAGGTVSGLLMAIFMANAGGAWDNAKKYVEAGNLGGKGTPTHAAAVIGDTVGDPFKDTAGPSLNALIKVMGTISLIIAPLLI
Source text: continuous Pi analyzer assay of PPi hydrolysis, inverted membrane vesicles, global fit on Dh-mPPase

[2] = substrate: O=P(O)(O)OP(=O)(O)O; experiment: cells, lysate or membranes; type: biochemical, Desulfitobacterium hafniense; conditions: varied free Mg2+ (extrapolated to Mg2+ saturation), 50 mM K+, 0.1 M MOPS-KOH pH 7.2, 25 °C, no inhibitor, first site of dimer, macroscopic, substrate counted as Mg2PPi

NC(P(=O)(O)O)P(=O)(O)O [AMDP]
Ki ([1]; read-out: Value / AMDP): 0.4 ± 0.02 µM

O=P(O)(O)NP(=O)(O)O [IDP]
Ki ([1]; read-out: Value / IDP): 4.2 ± 0.2 µM

CC(O)(P(=O)(O)O)P(=O)(O)O [HEDP]
Ki ([1]; read-out: Value / HEDP): 27 ± 1 µM

B1: Dh-mPPase (Desulfitobacterium hafniense DCB-2) (protein)
chain: T1 sequence (B8FXV7 1-671)
notes: full-length membrane protein expressed in E. coli C41(DE3)ril, assayed in inverted membrane vesicles; homodimer; K+-dependent H+-transporting, EC 7.1.3.1
Km [2]: 2.2 ± 0.1 µM
